Assay results reported in the NIST ThermoML archive (doi:10.1021/je900091b).

Assay: xn = mol fraction of the nth substance listed
Conditions: Liquid

C=C(C)C(=O)OC [methyl methacrylate] + CCCCn1cc[n+](C)c1.F[P-](F)(F)(F)(F)F
Conditions | mass density [kg/m3] | viscosity [mPa·s]
283.15 K, x1 = 0.0986 | 1360.73 | 434.9
283.15 K, x1 = 0.2094 | 1335.27 | 218.03
283.15 K, x1 = 0.3073 | 1310.42 | 118.57
283.15 K, x1 = 0.4053 | 1282.19 | 64.04
283.15 K, x1 = 0.4977 | 1250.45 | 34.64
283.15 K, x1 = 0.5993 | 1211.21 | 17.78
283.15 K, x1 = 0.7009 | 1164.35 | 8.859
283.15 K, x1 = 0.8003 | 1109.1 | 3.909
283.15 K, x1 = 0.9007 | 1042.12 | 1.719
283.15 K, x1 = 1 | 954.802 | 0.6808
288.15 K, x1 = 0.0986 | 1356.38 | 308.34
288.15 K, x1 = 0.2094 | 1330.98 | 161.21
288.15 K, x1 = 0.3073 | 1306.05 | 91.29
288.15 K, x1 = 0.4053 | 1277.72 | 50.28
288.15 K, x1 = 0.4977 | 1245.87 | 28.16
288.15 K, x1 = 0.5993 | 1206.49 | 14.99
288.15 K, x1 = 0.7009 | 1159.46 | 7.717
288.15 K, x1 = 0.8003 | 1103.97 | 3.485
288.15 K, x1 = 0.9007 | 1036.71 | 1.575
288.15 K, x1 = 1 | 949.097 | 0.6337
293.15 K, x1 = 0.0986 | 1352.04 | 224.88
293.15 K, x1 = 0.2094 | 1326.72 | 122.32
293.15 K, x1 = 0.3073 | 1301.68 | 71.8
293.15 K, x1 = 0.4053 | 1273.26 | 40.3
293.15 K, x1 = 0.4977 | 1241.3 | 23.27
293.15 K, x1 = 0.5993 | 1201.58 | 12.81
293.15 K, x1 = 0.7009 | 1154.07 | 6.781
293.15 K, x1 = 0.8003 | 1098.45 | 3.136
293.15 K, x1 = 0.9007 | 1031.1 | 1.45
293.15 K, x1 = 1 | 943.365 | 0.5899
298.15 K, x1 = 0.0986 | 1347.84 | 168.14
298.15 K, x1 = 0.2094 | 1322.45 | 94.88
298.15 K, x1 = 0.3073 | 1297.32 | 55.22
298.15 K, x1 = 0.4053 | 1268.81 | 32.87
298.15 K, x1 = 0.4977 | 1236.75 | 19.54
298.15 K, x1 = 0.5993 | 1197.09 | 11.07
298.15 K, x1 = 0.7009 | 1149.69 | 6.014
298.15 K, x1 = 0.8003 | 1093.72 | 2.836
298.15 K, x1 = 0.9007 | 1025.87 | 1.342
298.15 K, x1 = 1 | 937.615 | 0.554
303.15 K, x1 = 0.0986 | 1343.67 | 128.46
303.15 K, x1 = 0.2094 | 1318.17 | 75.44
303.15 K, x1 = 0.3073 | 1292.97 | 44.49
303.15 K, x1 = 0.4053 | 1264.37 | 27.22
303.15 K, x1 = 0.4977 | 1232.2 | 16.62
303.15 K, x1 = 0.5993 | 1192.4 | 9.662
303.15 K, x1 = 0.7009 | 1144.81 | 5.374
303.15 K, x1 = 0.8003 | 1088.59 | 2.583
303.15 K, x1 = 0.9007 | 1020.43 | 1.247
303.15 K, x1 = 1 | 931.837 | 0.5248
308.15 K, x1 = 0.0986 | 1339.49 | 100.54
308.15 K, x1 = 0.2094 | 1313.91 | 58.33
308.15 K, x1 = 0.3073 | 1288.62 | 36.45
308.15 K, x1 = 0.4053 | 1259.94 | 22.86
308.15 K, x1 = 0.4977 | 1227.67 | 14.29
308.15 K, x1 = 0.5993 | 1187.73 | 8.505
308.15 K, x1 = 0.7009 | 1139.93 | 4.838
308.15 K, x1 = 0.8003 | 1083.46 | 2.369
308.15 K, x1 = 0.9007 | 1014.97 | 1.165
308.15 K, x1 = 1 | 926.032 | 0.4956
313.15 K, x1 = 0.0986 | 1335.32 | 80.4
313.15 K, x1 = 0.2094 | 1309.66 | 47.27
313.15 K, x1 = 0.3073 | 1284.28 | 30.27
313.15 K, x1 = 0.4053 | 1255.53 | 19.43
313.15 K, x1 = 0.4977 | 1223.15 | 12.43
313.15 K, x1 = 0.5993 | 1183.05 | 7.55
313.15 K, x1 = 0.7009 | 1135.06 | 4.379
313.15 K, x1 = 0.8003 | 1078.32 | 2.175
313.15 K, x1 = 0.9007 | 1009.49 | 1.092
313.15 K, x1 = 1 | 920.185 | 0.4719
318.15 K, x1 = 0.0986 | 1331.15 | 62.99
318.15 K, x1 = 0.2094 | 1305.41 | 38.91
318.15 K, x1 = 0.3073 | 1279.94 | 25.49
318.15 K, x1 = 0.4053 | 1251.13 | 16.71
318.15 K, x1 = 0.4977 | 1218.64 | 10.9
318.15 K, x1 = 0.5993 | 1178.39 | 6.745
318.15 K, x1 = 0.7009 | 1130.19 | 3.99
318.15 K, x1 = 0.8003 | 1073.17 | 2.007
318.15 K, x1 = 0.9007 | 1004 | 1.026
318.15 K, x1 = 1 | 914.317 | 0.4497
323.15 K, x1 = 0.0986 | 1327 | 51.32
323.15 K, x1 = 0.2094 | 1301.17 | 32.45
323.15 K, x1 = 0.3073 | 1275.58 | 21.7
323.15 K, x1 = 0.4053 | 1246.74 | 14.51
323.15 K, x1 = 0.4977 | 1214.13 | 9.64
323.15 K, x1 = 0.5993 | 1173.73 | 6.066
323.15 K, x1 = 0.7009 | 1125.33 | 3.653
323.15 K, x1 = 0.8003 | 1068.01 | 1.868
323.15 K, x1 = 0.9007 | 998.489 | 0.9687
323.15 K, x1 = 1 | 908.405 | 0.4294
328.15 K, x1 = 0.0986 | 1322.85 | 42.36
328.15 K, x1 = 0.2094 | 1296.92 | 27.39
328.15 K, x1 = 0.3073 | 1271.14 | 18.69
328.15 K, x1 = 0.4053 | 1242.36 | 12.71
328.15 K, x1 = 0.4977 | 1209.65 | 8.585
328.15 K, x1 = 0.5993 | 1169.08 | 5.497
328.15 K, x1 = 0.7009 | 1120.46 | 3.362
328.15 K, x1 = 0.8003 | 1062.85 | 1.743
328.15 K, x1 = 0.9007 | 992.98 | 0.9201
328.15 K, x1 = 1 | 902.468 | 0.41
333.15 K, x1 = 0.0986 | 1318.71 | 35.43
333.15 K, x1 = 0.2094 | 1292.66 | 23.38
333.15 K, x1 = 0.3073 | 1267.36 | 16.24
333.15 K, x1 = 0.4053 | 1237.99 | 11.22
333.15 K, x1 = 0.4977 | 1205.17 | 7.691
333.15 K, x1 = 0.5993 | 1164.44 | 4.991
333.15 K, x1 = 0.7009 | 1115.59 | 3.111
333.15 K, x1 = 0.8003 | 1057.67 | 1.629
333.15 K, x1 = 0.9007 | 987.485 | 0.915
333.15 K, x1 = 1 | 896.479 | 0.3938
343.15 K, x1 = 0.0986 | 1310.46 | 25.61
343.15 K, x1 = 0.2094 | 1284.51 | 17.56
343.15 K, x1 = 0.3073 | 1259.32 | 12.57
343.15 K, x1 = 0.4053 | 1229.29 | 8.922
343.15 K, x1 = 0.4977 | 1196.23 | 6.278
343.15 K, x1 = 0.5993 | 1155.17 | 4.187
343.15 K, x1 = 0.7009 | 1105.84 | 2.708
343.15 K, x1 = 0.8003 | 1047.29 | 1.431
343.15 K, x1 = 0.9007 | 976.413 | 0.8545
343.15 K, x1 = 1 | 884.418 | 0.3636
353.15 K, x1 = 0.0986 | 1302.23 | 19.25
353.15 K, x1 = 0.2094 | 1275.98 | 13.65
353.15 K, x1 = 0.3073 | 1250.71 | 10.01
353.15 K, x1 = 0.4053 | 1220.62 | 7.259
353.15 K, x1 = 0.4977 | 1187.32 | 5.224
353.15 K, x1 = 0.5993 | 1145.91 | 3.579
353.15 K, x1 = 0.7009 | 1096.08 | 2.415
353.15 K, x1 = 0.8003 | 1036.87 | 1.272
353.15 K, x1 = 0.9007 | 965.13 | 0.781
353.15 K, x1 = 1 | 872.129 | 0.3398
